Source: patent US20220340597A1, “HEXAHYDRO-1H-PYRAZINO[1,2-A]PYRAZINE COMPOUNDS FOR THE TREATMENT OF AUTOIMMUNE DISEASE” (Hoffmann-La Roche Inc., priority 2019, published 2022)

Target: T1, human TLR9 (Homo sapiens, UniProt Q9NR96)
T1 construct: host or cells: HEK293 (HEK-Blue hTLR9)
T1 sequence (Q9NR96 26-1032): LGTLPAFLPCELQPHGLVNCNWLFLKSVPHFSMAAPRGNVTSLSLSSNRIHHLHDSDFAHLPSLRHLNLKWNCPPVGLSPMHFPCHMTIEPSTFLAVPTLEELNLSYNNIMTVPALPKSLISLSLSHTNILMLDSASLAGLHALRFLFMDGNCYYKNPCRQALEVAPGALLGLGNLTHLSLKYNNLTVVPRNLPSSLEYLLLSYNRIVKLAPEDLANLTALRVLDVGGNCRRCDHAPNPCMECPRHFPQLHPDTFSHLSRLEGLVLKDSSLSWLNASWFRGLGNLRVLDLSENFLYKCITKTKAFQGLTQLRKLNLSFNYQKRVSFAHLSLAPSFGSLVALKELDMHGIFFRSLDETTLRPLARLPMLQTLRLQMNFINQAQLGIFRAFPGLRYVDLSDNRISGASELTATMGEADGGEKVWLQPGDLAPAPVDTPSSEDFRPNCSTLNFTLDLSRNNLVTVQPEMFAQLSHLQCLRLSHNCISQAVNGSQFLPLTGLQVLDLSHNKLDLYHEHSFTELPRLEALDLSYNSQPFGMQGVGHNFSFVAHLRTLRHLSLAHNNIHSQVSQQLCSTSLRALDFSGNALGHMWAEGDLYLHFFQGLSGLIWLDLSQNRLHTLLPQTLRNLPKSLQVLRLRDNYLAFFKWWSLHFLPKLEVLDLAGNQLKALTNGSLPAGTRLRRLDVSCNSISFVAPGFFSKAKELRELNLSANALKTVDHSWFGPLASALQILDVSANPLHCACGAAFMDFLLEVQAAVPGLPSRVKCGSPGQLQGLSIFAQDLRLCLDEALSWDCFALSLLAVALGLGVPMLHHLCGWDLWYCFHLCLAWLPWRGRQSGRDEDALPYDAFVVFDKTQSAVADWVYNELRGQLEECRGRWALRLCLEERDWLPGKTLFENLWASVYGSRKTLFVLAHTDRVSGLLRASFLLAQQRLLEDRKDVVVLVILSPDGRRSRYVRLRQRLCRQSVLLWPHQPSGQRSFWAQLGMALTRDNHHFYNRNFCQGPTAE
Test: HEK293-Blue-hTLR-9 cells assay
Format: cell-based
Conditions: HEK293-Blue-hTLR9 cells, ODN2006 stimulation, 20 hrs, SEAP reporter; read-out: HEK/hTLR9 IC50

IC50 [nM]	Compound
140	[2H]c1ccc2c(N3C[C@@H]4CN(c5ncc(N6CC[C@@](C)(N)C6)cc5C)CCN4[C@H](C)C3)ccc(C#N)c2n1 [Example 97, 5-[(4R,9aR)-8-[5-[(3R)-3-amino-3-methyl-pyrrolidin-1-yl]-3-methyl-2-pyridyl]-4-methyl-3,4,6,7,9,9a-hexahydro-1H-pyrazino[1,2-a]pyrazin-2-yl]-2-deuterio-quinoline-8-carbonitrile]
< 32	[2H]c1ccc2c(N3C[C@@H]4CN(Cc5ccc(N6CC7(CN(C)C7)C6)nc5C)CCN4[C@H](C)C3)ccc(C#N)c2n1 [Example 80, 5-[(4R,9aS)-4-methyl-8-[[2-methyl-6-(6-methyl-2,6-diazaspiro[3.3]heptan-2-yl)-3-pyridyl]methyl]-3,4,6,7,9,9a-hexahydro-1H-pyrazino[1,2-a]pyrazin-2-yl]-2-deuterio-quinoline-8-carbonitrile]
51	[2H]c1ccc2c(N3C[C@@H]4CN(Cc5ccc(N6CC7CNCC(C6)O7)nc5C)CCN4[C@H](C)C3)ccc(C#N)c2n1 [Example 83, 5-[(4R,9aS)-4-methyl-8-[[2-methyl-6-(9-oxa-3,7-diazabicyclo[3.3.1]nonan-3-yl)-3-pyridyl]methyl]-3,4,6,7,9,9a-hexahydro-1H-pyrazino[1,2-a]pyrazin-2-yl]-2-deuterio-quinoline-8-carbonitrile]

Continued, compound first:

Compound	IC50 [nM]
Cc1cc(N2CCNCC2)cnc1N1CCN2[C@@H](C1)CN(c1cc(=O)n(C)c3ncccc13)C[C@H]2C [Example 93, 4-[(4R,9aR)-4-methyl-8-(3-methyl-5-piperazin-1-yl-2-pyridyl)-3,4,6,7,9,9a-hexahydro-1H-pyrazino[1,2-a]pyrazin-2-yl]-1-methyl-1,8-naphthyridin-2-one]	186
[2H]c1ccc2c(N3C[C@@H]4CN(Cc5nc(N6CCNCC6)ccc5C)CCN4[C@H](C)C3)ccc(C#N)c2n1 [Example 88, 5-[(4R,9aS)-4-methyl-8-[(3-methyl-6-piperazin-1-yl-2-pyridyl)methyl]-3,4,6,7,9,9a-hexahydro-1H-pyrazino[1,2-a]pyrazin-2-yl]-2-deuterio-quinoline-8-carbonitrile]	47
[2H]c1ccc2c(N3C[C@@H]4CN(Cc5ccc(N6CC7CCC(C6)N7)nc5C)CCN4[C@H](C)C3)ccc(C#N)c2n1 [Example 91, 5-[(4R,9aS)-8-[[6-(3,8-diazabicyclo[3.2.1]octan-3-yl)-2-methyl-3-pyridyl]methyl]-4-methyl-3,4,6,7,9,9a-hexahydro-1H-pyrazino[1,2-a]pyrazin-2-yl]-2-deuterio-quinoline-8-carbonitrile]	45
[2H]c1ccc2c(N3C[C@@H]4CN(Cc5ccc(N6CC7CC(C6)N7)nc5C)CCN4[C@H](C)C3)ccc(C#N)c2n1 [Example 90, 5-[(4R,9aS)-8-[[6-(3,6-diazabicyclo[3.1.1]heptan-3-yl)-2-methyl-3-pyridyl]methyl]-4-methyl-3,4,6,7,9,9a-hexahydro-1H-pyrazino[1,2-a]pyrazin-2-yl]-2-deuterio-quinoline-8-carbonitrile]	33
Cc1nc(N2CCNC[C@@H]2C)ccc1CN1CCN2[C@@H](C1)CN(c1ccc(C#N)c3ncccc13)C[C@H]2C [Example 85, 5-[(4R,9aS)-4-methyl-8-[[2-methyl-6-[(2S)-2-methylpiperazin-1-yl]-3-pyridyl]methyl]-3,4,6,7,9,9a-hexahydro-1H-pyrazino[1,2-a]pyrazin-2-yl]quinoline-8-carbonitrile]	97
[2H]c1ccc2c(N3C[C@@H]4CN(Cc5cnc(N6C[C@@H]7C[C@H]6CN7)cc5C)CCN4[C@H](C)C3)ccc(C#N)c2n1 [Example 94, 5-[(4R,9aS)-8-[[6-[(1S,4S)-2,5-diazabicyclo[2.2.1]heptan-2-yl]-4-methyl-3-pyridyl]methyl]-4-methyl-3,4,6,7,9,9a-hexahydro-1H-pyrazino[1,2-a]pyrazin-2-yl]-2-deuterio-quinoline-8-carbonitrile]	99
